Biological target: hDcp2 (Homo sapiens, UniProt Q8IU60)
Test: In vitro RNA decapping assay with hDcp2
Type: biochemical
Settings: RNA capped with the analogue; 15 min incubation; 100 ng capped RNA, 630 nM hDcp2

Row | SMILES | Decapping susceptibility (% of RNA decapping)
1 | CO[C@H]1[C@@H](O)[C@H]([n+]2cn(C)c3c(=O)[nH]c(N)nc32)O[C@@H]1COP(=O)([O-])OP(=O)(O)OP(=O)(O)OC[C@H]1O[C@@H](n2cnc3c(=O)[nH]c(N)nc32)[C@H](O)[C@@H]1O [m2^7,3′-OGpppG] | 74 ± 3%
2 | Cn1c[n+]([C@@H]2O[C@H](COP(=O)(O)OP(=O)([O-])OP(=O)(O)OC[C@H]3O[C@@H](n4cnc5c(=O)[nH]c(N)nc54)[C@H](O)[C@@H]3O)[C@@H](O)[C@H]2O)c2nc(N)[nH]c(=O)c21 [m^7GpppG] | 82 ± 2%

Source: paper PMC5587727 (Nucleic Acids Research, 2017)
